Measurements reported in patent US5104880A, “Huperzine a analogs as acetylcholinesterase inhibitors” (Mayo Foundation for Medical Education and Research, priority 1991, dated 1992).
Like-named read-outs stand apart in the source and are kept apart here.

Tests used:
AChE [1] = settings: as AChE inhibitors for treatment of AD; cited from earlier work
animals = settings: studies performed in China; cited from earlier work
AChE [2] = molecular target: T1, AChE (Rattus norvegicus, UniProt P37136); assay: biochemical
T1 construct: from tissue; host or cells: rat hippocampus, crude homogenate (P2 synaptosome-rich fraction)
T1 sequence (P37136 32-614): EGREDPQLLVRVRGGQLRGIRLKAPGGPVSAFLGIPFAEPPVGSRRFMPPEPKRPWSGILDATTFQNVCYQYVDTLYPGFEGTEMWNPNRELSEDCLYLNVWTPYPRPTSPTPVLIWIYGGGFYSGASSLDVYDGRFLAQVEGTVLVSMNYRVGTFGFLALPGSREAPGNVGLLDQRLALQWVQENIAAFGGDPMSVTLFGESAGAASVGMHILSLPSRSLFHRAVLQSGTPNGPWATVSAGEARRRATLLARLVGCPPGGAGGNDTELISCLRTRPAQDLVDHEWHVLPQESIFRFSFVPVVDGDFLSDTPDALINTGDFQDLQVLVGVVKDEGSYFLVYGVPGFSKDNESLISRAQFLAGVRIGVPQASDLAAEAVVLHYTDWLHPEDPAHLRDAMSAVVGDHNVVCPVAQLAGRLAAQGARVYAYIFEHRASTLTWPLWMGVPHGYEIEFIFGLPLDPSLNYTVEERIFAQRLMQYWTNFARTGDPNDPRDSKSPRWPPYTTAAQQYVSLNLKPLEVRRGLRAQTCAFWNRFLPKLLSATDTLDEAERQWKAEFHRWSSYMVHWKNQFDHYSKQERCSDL
Procedure: *Assayed using rat hippocampal crude homogenates over a concentration
in 10% DMSO made up in the incubation buffer medium. In addition, those
hydrochloric acid and sonicated briefly until they dissolved in the
solution. In each case, the control medium always consisted of the same
ingredients as those which were used to dissolve the compound under
The activity of these new compounds was assayed using AChE isolated from rat brain. […] Rats were killed by decapitation and the brains were extirpated rapidly. […] Homogenates were centrifuged at 1000×g for 10 min to remove cell nuclei and heavy debris. […] A portion of this synaptosome-rich fraction was added in triplicate to ice-cold pH 7.4 Krebs-Ringer medium.
Assay of AChE was carried out according to the method described in C. […] Tissue homogenate was incubated for 30 min at 30° C. in a final volume of […] containing 75 mM sodium phosphate buffer, pH 7.0, and 1.5 mM [^14 C]acetylcholine (1.9 mCi/mmol). […] The tubes were vortexed for 10 sec, then centrifuged for 1 min. The bottom aqueous layer was quickly frozen in a dry ice/acetone bath, and the top organic layer aspirated off. Finally, the buffer was allowed to thaw, and a 25 μl portion was counted for the amount of [^14 C]acetate formed. The amount of residual [^14 C]acetylcholine left in the buffer by the extraction step alone was determined by subtracting from the tissue sample values of [^14 C]acetylcholine measured in a blank sample that contained buffer and substrate, but no tissue.

AChE [3] = settings: vs (±)-huperzine A; cited from earlier work
Alzheimer's Disease = settings: cited from earlier work
[4] = 0.65 mg/kg i.m.; cited from earlier work
AChE [5] = settings: 0.65 mg/kg i.m.; cited from earlier work
myasthenia gravis = settings: 128 patients; cited from earlier work
squirrel monkeys = settings: cited from earlier work
mice = settings: cited from earlier work

For CC1=C[C@H]2Cc3[nH]c(=O)ccc3[C@]3(C1)NCCC[C@H]23 [huperzine B], the “comparison with THA and physostigmine” value (AChE [1]) is given as “appear superior to THA and physostigmine” and the memory and learning (animals) is given as “improve memory and learning in animals”.
With CC=C1C2CCCC1(N)c1ccc(=O)[nH]c1C2 (stereo not shown) [Compound 3, C15 -desmethyl-(C8 -C15)dihydrohuperzine] the IC50 (AChE [2]; AChE isolated from rat brain, read-out: IC50 value (AChE)) was 1.3e-05 M and the “fold less potent than natural huperzine A” value (AChE [2]; considering the racemic nature of compound 3) was “at least fifty-fold”.
For C/C=C1\C2C=C(C)CC1(CN)c1ccc(=O)[nH]c1C2 (stereo not shown), the “times less potent than (±)-huperzine A as an inhibiter of AChE” value (AChE [3]) is given as “about 166 times”.
In the case of CNC(=O)Oc1ccc2c(c1)[C@]1(C)CCN(C)[C@@H]1N2C [physostigmine], the cognitive improvement (Alzheimer's Disease) is given as “modest cognitive improvement”, the side effects [4] is given as “causes considerable side effects” and the “maximal duration of action (AChE inhibitory action)” value (AChE [5]) is given as ≤ 60 min.
In the case of CC1=CC2Cc3[nH]c(=O)ccc3C(N)(C1)/C2=C/Cl (stereo not shown) [Compound 13, 11-DESMETHYL-11-CHLORO-HUPERZINE A], the IC50 (AChE [2]; AChE IC50 (M)*, Table I, rat hippocampal crude homogenates, 10^-11 M to 10^-3 M, 10% DMSO in buffer) is reported as 8.09e-07 M.
In the case of CC=C1C2C=C(C)CC1(N)c1ccc(=O)[nH]c1C2 (single isomer, unassigned; (-)) [Compound 1a, (-)-Huperzine A], the “control of the clinical manifestations of myasthenia gravis (cases)” value (myasthenia gravis) is given as 99%, the cognition enhancement (squirrel monkeys) is given as “effective cognition enhancer” and the cognition enhancement (mice) is given as “effective cognition enhancer”. For the same molecule, the memory and learning (animals) was “improve memory and learning in animals”.
